Assay results: ChEMBL document CHEMBL4706703, “Novel 3-benzylidene/benzylphthalide Mannich base derivatives as potential multifunctional agents for the treatment of Alzheimer's disease” (Bioorg Med Chem, 2021)
Active and inactive are the calls of the source. The rule behind the calls is not given here.

Experiments:
[1] = system: PC-12; test: Neuroprotective activity against H2O2-induced cytotoxicity in rat PC12 cells assessed as increase in cell viability at 100 uM preincubated for 2 hrs followed by H2O2 addition and measured after 24 hrs by MTT assay; type: functional, cell-based; settings: time 26.0 hrs
[2] = target: Acetylcholinesterase (Electrophorus electricus, UniProt O42275); test: Inhibition of Electrophorus electricus AChE using acetylthiocholine iodide as substrate incubated for 15 mins by Ellman's method
Acetylcholinesterase (Electrophorus electricus, UniProt O42275), sequence (O42275 whole entry): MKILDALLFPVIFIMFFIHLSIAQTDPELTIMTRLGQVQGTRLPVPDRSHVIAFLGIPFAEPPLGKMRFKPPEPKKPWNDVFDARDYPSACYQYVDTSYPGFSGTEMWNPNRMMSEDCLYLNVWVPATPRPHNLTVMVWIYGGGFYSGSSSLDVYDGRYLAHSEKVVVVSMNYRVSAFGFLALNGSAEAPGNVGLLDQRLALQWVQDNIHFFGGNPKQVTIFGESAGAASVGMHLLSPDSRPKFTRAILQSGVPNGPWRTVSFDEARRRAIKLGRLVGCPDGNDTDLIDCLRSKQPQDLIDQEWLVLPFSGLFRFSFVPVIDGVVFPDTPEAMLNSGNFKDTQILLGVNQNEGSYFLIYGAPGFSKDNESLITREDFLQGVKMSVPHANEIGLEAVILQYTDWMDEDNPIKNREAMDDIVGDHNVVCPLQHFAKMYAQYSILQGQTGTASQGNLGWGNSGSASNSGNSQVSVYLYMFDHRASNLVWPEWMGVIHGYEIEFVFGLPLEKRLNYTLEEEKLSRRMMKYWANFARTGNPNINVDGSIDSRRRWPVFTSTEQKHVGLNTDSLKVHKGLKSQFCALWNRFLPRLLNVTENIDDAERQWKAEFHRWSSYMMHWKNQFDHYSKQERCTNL

[3] = target: butyrylcholinesterase (BuChE) (Rattus norvegicus, UniProt Q9JKC1); test: Inhibition of rat serum BuChE at 10 uM using butyrylthiocholine iodide as substrate incubated for 15 mins by Ellman's method relative to control; type: cell-free; settings: probe butyrylthiocholine iodide
butyrylcholinesterase (BuChE), sequence (Q9JKC1 whole entry): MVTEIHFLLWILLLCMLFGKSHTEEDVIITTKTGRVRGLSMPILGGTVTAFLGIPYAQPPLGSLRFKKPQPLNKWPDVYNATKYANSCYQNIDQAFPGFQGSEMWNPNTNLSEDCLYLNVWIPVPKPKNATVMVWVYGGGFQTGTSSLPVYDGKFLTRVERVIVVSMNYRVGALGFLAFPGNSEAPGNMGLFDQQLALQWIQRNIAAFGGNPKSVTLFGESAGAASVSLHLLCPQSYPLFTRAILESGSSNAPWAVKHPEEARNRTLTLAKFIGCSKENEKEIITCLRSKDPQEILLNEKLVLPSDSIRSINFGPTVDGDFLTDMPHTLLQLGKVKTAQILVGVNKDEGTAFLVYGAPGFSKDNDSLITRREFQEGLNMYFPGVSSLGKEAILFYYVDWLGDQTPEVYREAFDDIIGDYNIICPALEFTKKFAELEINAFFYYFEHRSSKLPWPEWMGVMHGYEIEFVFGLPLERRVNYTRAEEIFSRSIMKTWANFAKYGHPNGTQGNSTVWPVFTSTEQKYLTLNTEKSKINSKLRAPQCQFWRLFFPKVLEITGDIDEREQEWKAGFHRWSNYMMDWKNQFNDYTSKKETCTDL

[4] = target: T1, MAO-A (Homo sapiens, UniProt P21397); test: Inhibition of recombinant human MAOA at 10 uM using kynuramine as substrate preincubated for 30 mins followed by substrate addition and measured after 30 mins by fluorescence assay relative to control; settings: probe kynuramine, time 60 min
T1 sequence (P21397 whole entry): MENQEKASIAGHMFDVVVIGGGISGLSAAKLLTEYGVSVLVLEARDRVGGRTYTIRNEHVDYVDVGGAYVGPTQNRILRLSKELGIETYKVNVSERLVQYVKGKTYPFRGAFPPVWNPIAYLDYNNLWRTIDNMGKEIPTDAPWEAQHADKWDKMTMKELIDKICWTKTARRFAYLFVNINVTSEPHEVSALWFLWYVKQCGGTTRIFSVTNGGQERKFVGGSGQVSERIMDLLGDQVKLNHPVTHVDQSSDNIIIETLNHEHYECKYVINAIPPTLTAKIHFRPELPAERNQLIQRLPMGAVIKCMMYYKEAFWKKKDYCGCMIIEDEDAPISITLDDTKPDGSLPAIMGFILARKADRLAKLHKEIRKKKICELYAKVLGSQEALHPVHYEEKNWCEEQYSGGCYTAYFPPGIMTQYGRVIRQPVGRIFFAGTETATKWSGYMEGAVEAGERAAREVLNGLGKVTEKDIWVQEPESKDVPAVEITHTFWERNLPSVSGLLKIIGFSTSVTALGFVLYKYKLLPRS

[5] = target: T2, Amine oxidase [flavin-containing] B (Homo sapiens, UniProt P27338); test: Inhibition of recombinant human MAOB at 10 uM using kynuramine as substrate preincubated for 30 mins followed by substrate addition and measured after 30 mins by fluorescence assay relative to control; settings: 0.5 h
T2 sequence (P27338 whole entry): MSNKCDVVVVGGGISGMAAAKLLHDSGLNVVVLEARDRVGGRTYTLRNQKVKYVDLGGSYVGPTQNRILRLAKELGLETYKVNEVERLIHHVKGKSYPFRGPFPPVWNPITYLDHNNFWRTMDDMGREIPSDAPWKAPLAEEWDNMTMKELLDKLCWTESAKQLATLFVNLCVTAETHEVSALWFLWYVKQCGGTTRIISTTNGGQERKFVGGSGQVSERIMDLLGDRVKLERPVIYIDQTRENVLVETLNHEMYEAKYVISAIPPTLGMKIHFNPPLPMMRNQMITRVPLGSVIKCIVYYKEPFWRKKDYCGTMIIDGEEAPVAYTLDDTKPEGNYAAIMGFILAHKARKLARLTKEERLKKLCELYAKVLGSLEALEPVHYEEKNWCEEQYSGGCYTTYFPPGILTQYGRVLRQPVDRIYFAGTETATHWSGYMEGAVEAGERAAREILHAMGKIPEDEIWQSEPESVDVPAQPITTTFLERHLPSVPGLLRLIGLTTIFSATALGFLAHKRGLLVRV

[6] = Antioxidant activity assessed as trolox equivalent of AAPH radical scavenging activity measured every min for 90 mins by ORAC-FL assay; type: functional
[7] = target: Amyloid-beta precursor protein (Homo sapiens) (UniProt P05067); test: Inhibition of amyloid beta (1 to 42) (unknown origin) self aggregation at 25 uM after 24 hrs by thioflavin-T fluorescence method relative to control
Amyloid-beta precursor protein (Homo sapiens), sequence (P05067 whole entry, the tested form may be a part): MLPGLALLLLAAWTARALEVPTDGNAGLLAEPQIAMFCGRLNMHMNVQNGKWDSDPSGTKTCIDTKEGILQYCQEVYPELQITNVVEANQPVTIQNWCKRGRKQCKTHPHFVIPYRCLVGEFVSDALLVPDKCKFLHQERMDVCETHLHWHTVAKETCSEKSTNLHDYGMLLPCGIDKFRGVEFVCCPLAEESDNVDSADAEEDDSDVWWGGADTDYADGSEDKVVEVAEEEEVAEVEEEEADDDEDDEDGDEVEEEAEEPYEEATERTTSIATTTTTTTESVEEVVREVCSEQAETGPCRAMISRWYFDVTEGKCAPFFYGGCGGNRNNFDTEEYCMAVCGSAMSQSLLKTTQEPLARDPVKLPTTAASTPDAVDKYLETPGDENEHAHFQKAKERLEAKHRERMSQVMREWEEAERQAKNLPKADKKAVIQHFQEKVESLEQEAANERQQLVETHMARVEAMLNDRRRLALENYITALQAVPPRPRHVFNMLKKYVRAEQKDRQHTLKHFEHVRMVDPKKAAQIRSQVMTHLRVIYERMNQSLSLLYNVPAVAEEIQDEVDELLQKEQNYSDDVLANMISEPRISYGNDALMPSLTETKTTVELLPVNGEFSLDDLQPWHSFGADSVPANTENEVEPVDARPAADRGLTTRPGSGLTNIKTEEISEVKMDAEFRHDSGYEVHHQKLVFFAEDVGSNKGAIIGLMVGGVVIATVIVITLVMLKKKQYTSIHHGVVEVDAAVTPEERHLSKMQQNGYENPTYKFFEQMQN

[8] = Inhibition of Cu2+-induced amyloid beta (1 to 42 residues) aggregation at 25 uM after 24 hrs by thioflavin T-based fluorescence assay relative to control
[9] = target: T3, Acetylcholinesterase (Homo sapiens, UniProt P22303); test: Inhibition of human AChE using acetylthiocholine iodide as substrate incubated for 15 mins by Ellman's method
T3 sequence (P22303 whole entry): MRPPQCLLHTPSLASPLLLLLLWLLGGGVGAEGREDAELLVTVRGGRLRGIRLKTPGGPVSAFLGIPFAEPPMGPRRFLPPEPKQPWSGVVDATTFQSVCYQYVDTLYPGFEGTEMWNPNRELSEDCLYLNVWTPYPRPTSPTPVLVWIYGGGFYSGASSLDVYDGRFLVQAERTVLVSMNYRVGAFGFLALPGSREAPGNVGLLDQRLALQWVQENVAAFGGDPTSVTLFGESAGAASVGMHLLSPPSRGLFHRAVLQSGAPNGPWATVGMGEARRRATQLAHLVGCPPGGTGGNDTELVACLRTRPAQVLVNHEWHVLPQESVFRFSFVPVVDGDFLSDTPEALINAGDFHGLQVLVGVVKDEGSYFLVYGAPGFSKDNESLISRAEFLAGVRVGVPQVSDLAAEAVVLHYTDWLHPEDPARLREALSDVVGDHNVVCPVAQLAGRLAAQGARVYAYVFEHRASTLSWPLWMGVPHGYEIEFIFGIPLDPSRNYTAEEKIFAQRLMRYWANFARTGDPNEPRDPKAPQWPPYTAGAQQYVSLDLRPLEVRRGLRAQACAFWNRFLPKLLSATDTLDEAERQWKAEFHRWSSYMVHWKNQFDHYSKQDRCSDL

[10] = target: Amyloid-beta precursor protein (Homo sapiens) (UniProt P05067); test: Disaggregation of self-induced amyloid beta (1 to 42) (unknown origin) preformed fibrils at 25 uM measured after 24 hrs by thioflavin-T fluorescence assay relative to control
[11] = system: Plasma; test: Antiplatelet activity in rat platelet-rich plasma assessed as inhibition of ADP-induced platelet aggregation at 33 uM preincubated for 30 mins followed by ADP addition measured within 5 mins by aggregometry relative to control; type: functional; settings: time 30-35 min
[12] = Permeability of the compound in pH 7.4 PBS/EtOH at 100 ug/ml after 18 hrs by PAMPA-BBB assay; type: ADME; settings: dose 100 µg/ml, read-out: permeability
[13] = target: T3, Acetylcholinesterase; test: Inhibition of human AChE at 10 uM using acetylthiocholine iodide as substrate incubated for 15 mins by Ellman's method relative to control
[14] = system: PC-12; test: Neuroprotective activity against H2O2-induced cytotoxicity in rat PC12 cells assessed as increase in cell viability at 10 uM preincubated for 2 hrs followed by H2O2 addition and measured after 24 hrs by MTT assay; type: functional, cell-based; settings: time 26.0 hrs
[15] = system: Mus musculus; test: Memory improvement effect in Kunming mouse model of scopolamine-induced memory impairment assessed as increase in latency time at 5 mg/kg, ig administered once daily for 7 days followed by scopolamine challenge 30 mins prior to training on day 6 measured on day 7 by passive avoidance test; type: functional, organism-based; settings: time 7.0 day
[16] = system: Mus musculus; test: Memory improvement effect in Kunming mouse model of scopolamine-induced memory impairment assessed as reduction in number of errors at 5 mg/kg, ig administered once daily for 7 days followed by scopolamine challenge 30 mins prior to training on day 6 measured on day 7 by passive avoidance test; type: functional, organism-based; settings: time 7.0 day
[17] = system: Mus musculus; test: Reversal of scopolamine-induced memory impairment in Kunming mouse assessed as increase in ACh level in cerebral cortex at 5 mg/kg, ig administered once daily for 7 days followed by scopolamine challenge 30 mins prior to training trail on day 6 measured on day 7; type: functional, organism-based; settings: time 7.0 day
[18] = target: Acetylcholinesterase (Electrophorus electricus) (UniProt O42275); test: Inhibition of Electrophorus electricus AChE at 10 uM using acetylthiocholine iodide as substrate incubated for 15 mins by Ellman's method relative to control
Acetylcholinesterase (Electrophorus electricus), sequence (O42275 24-633 limits assumed): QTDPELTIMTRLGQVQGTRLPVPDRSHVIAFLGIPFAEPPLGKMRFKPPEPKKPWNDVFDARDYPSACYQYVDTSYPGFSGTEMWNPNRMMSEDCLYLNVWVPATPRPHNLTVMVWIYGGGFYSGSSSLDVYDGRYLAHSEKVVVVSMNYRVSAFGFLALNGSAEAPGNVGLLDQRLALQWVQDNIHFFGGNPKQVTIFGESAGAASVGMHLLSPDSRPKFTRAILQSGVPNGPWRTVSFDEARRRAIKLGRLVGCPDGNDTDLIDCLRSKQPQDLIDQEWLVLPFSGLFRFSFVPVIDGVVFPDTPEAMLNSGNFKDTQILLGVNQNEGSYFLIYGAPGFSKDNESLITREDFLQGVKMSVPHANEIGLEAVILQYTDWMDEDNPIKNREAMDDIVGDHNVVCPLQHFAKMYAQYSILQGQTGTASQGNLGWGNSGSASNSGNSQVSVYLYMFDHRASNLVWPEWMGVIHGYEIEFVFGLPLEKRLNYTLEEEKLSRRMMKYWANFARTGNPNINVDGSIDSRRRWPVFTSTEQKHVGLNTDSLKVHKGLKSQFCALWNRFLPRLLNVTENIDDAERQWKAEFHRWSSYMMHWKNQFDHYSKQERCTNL

[19] = target: T2, Amine oxidase [flavin-containing] B; test: Inhibition of recombinant human MAOB using kynuramine as substrate preincubated for 30 mins followed by substrate addition and measured after 30 mins by fluorescence assay
[20] = system: Plasma; test: Antiplatelet activity in rat platelet-rich plasma assessed as inhibition of ADP-induced platelet aggregation preincubated for 30 mins followed by ADP addition measured within 5 mins by aggregometry; type: functional

| Compound | IC50 [2] [nM] | inhibition at […], 10 µM [3] [%] | inhibition at 0.5 h, 10 µM [4] [%] | inhibition at 10 µM [5] [%] | Activity [6] [equiv] | inhibition [7] [%] | inhibition [8] [%] | IC50 [9] [nM] | inhibition at 33 µM [11] [%] | also measured |
| --- | --- | --- | --- | --- | --- | --- | --- | --- | --- | --- |
| Cc1c(C)c2c(c(C)c1O)CCC(C)(C(=O)O)O2 (stereo not drawn) | – | – | – | – | – | – | – | – | – | Activity [1]: Active |
| COc1cc2c(cc1OC)C(Cc1ccc(N3CCOCC3)c(O)c1)OC2=O (stereo not drawn) | 8260 | < 5 | 8.7 | 34.7 | 2.42 | 29.5 | 9.5 | – | – | – |
| CCN(CC)c1cc(/C=C2\OC(=O)c3cc(OC)c(OC)cc32)ccc1O | 0.383 | 15.7 | < 5 | 46.2 | 2.14 | 25.9 | < 5 | 1.55 | 45.1 | Activity [10]: 19.9% |
| COc1cc2c(cc1OC)C(Cc1ccc(N3CCCC3)c(O)c1)OC2=O (stereo not drawn) | 960 | 19.8 | < 5 | 14.6 | 2.54 | 31.1 | 18.5 | – | < 5 | – |
| COc1cc2c(cc1OC)/C(=C\c1ccc(O)c(N3CCCCC3)c1)OC2=O | 0.0704 | 27.6 | 5.67 | 34.8 | 1.95 | 15.8 | – | 0.338 | 18.4 | Papp at 18 h, 100 ug/ml [12]: 11.2 ×10⁻⁶ cm/s |
| COc1cc2c(cc1OC)/C(=C/c1ccc(N3CCCCC3)c(O)c1)OC2=O | 66 | < 5 | 6.1 | < 5 | 1.46 | 24.6 | – | 50 | 15.4 | – |
| CCCCC1OC(=O)c2ccccc21 (racemic) [RAC-3-N-BUTYLPHTHALIDE] | – | < 5 | – | – | 0.2 | – | < 5 | – | 9.5 | inhibition [13]: < 5%; Activity [10]: < 5%; Activity [14]: Active |
| COc1cc2c(cc1OC)C(Cc1ccc(N3CCCCC3)c(O)c1)OC2=O (stereo not drawn) | 33 | 10.3 | 14.8 | 8.6 | 2.42 | 28.9 | 12.8 | – | < 5 | – |
| CCN(CC)c1ccc(CC2OC(=O)c3cc(OC)c(OC)cc32)cc1O (stereo not drawn) | 2210 | < 5 | < 5 | < 5 | 2.14 | 30.1 | 14.3 | – | < 5 | – |
| COc1cc2c(cc1OC)C(=O)C(CC1CCN(Cc3ccccc3)CC1)C2 (stereo not drawn) | – | – | – | – | – | – | – | – | – | Activity [15]: Active; Activity [16]: Active; Activity [17]: Active |
| COc1cc2c(cc1OC)/C(=C/c1ccc(N3CCN(C)CC3)c(O)c1)OC2=O | – | < 5 | 16.5 | – | 1.36 | – | – | – | – | inhibition [18]: 42.4%; IC50 [19]: 1550 nM |
| COc1cc2c(cc1OC)/C(=C\c1ccc(N3CCCCC3)c(O)c1)OC2=O | 8.83 | 26.2 | 49.1 | 16.1 | 1.94 | 22.5 | – | 12 | < 5 | – |
| COc1cc(/C=C/C(=O)CC(=O)/C=C/c2ccc(O)c(OC)c2)ccc1O | – | – | – | – | – | – | 58 | – | – | Activity [10]: 24.3% |
| O=C1CCc2cc(OCCCCc3nnnn3C3CCCCC3)ccc2N1 [CILOSTAZOL] | – | – | – | – | – | – | – | – | – | IC50 [20]: 65100 nM |
| CCN(CC)c1cc(/C=C2/OC(=O)c3cc(OC)c(OC)cc32)ccc1O | 0.307 | 25.1 | < 5 | 24.9 | 2.62 | 33.6 | – | 1.28 | 53.8 | – |
